Measurements taken from EP3964204A1, “LSD1 INHIBITORS FOR USE IN THE TREATMENT AND PREVENTION OF FIBROSIS OF TISSUES” (Université d'Aix-Marseille, priority 2020, dated 2022).

Key:
LSD1 = molecular target: T1, LSD1 (Mus musculus, UniProt Q6ZQ88); assay: Cardiac LSD1 activity in explanted hearts at end of treatment (Epigentec kit); format: in vivo, mice; details: 1.5 mg / Kg intragastric gavage from 10 days after experimental infarction for three weeks, Figure 1
T1 construct: from tissue; host or cells: explanted hearts of C57BL/6 mice
Description: The LSD1 inhibitor (1.5 mg / Kg) was administered by intragastric gavage 10 days after experimental infarction and for three weeks. Losartan (5mg/kg) was also administered by oral gavage one week after experimental infarction and for three weeks,
The severity of the infarction was assessed by echocardiography 10 days after surgery. LSD1 activity was measured at the end of treatment (Epigentec kit) in explanted hearts. […] The ventricular wall has thickened when compared to the group treated with losartan Student -t-test ** p≤ 0.001 (Figure 2 B). Left ventricular function has improved. • 2- Ischemia -reperfusion model : transient ligation of descending anterior left coronary (30 min); followed by reperfusion

C57BL/6 adult mice [1] = assay: Permanent infarction model (permanent ligation of descending anterior left coronary, no reperfusion); format: in vivo
Description: (§1) Both groups were subjected to experimental infarction. A control group received no treatment. Two myocardial infraction models were used, respectively a permanent infarction model and an ischemia -reperfusion model. The LSD1 inhibitor (1.5 mg / Kg) was administered by intragastric gavage 10 days after experimental infarction and for three weeks. Losartan (5mg/kg) was also administered by oral gavage one week after experimental infarction and for three weeks, • 1: experimental infarctus : • 2.: 10 days later: control echo : pretreatment echo: • 3: posttreatment echo one month later The severity of the infarction was assessed by echocardiography 10 days after surgery. LSD1 activity was measured at the end of treatment ([…] kit) in explanted hearts. […] The ventricular wall has thickened when compared to the group treated with losartan Student -t-test ** p≤ 0.001 (Figure 2 B). Left ventricular function has improved. • 2- Ischemia -reperfusion model : transient ligation of descending anterior left coronary (30 min); followed by reperfusion

C57BL/6 adult mice [2] = assay: Ischemia-reperfusion model (transient ligation of descending anterior left coronary 30 min, then reperfusion); format: in vivo
Description: as §1, with “by reperfusion The results were similar in the ischemia / reperfusion model. […] Student -t-test **p≤ 0.001 The shortening fraction (SF) is an index of contractile activity : the contraction of the walls of ventricle is responsible of the shortening of the distance between each wall. This is calculated by dividing the distance between the walls at diastole minus the distance between the walls at systole by the distance between the walls at diastole (in %) Shortening fraction x Volume of chamber = ejection fraction (% of the chamber volume emptied at each contraction)” for “by reperfusion”

Cl.Cl.c1ccc([C@@H]2C[C@H]2NC2CCNCC2)cc1 [GSK-LSD1, N-[(1R,2S)-2-phenylcyclopropyl]piperidin-4-amine dihydrochloride]
cardiac LSD1 activity (LSD1): significantly reduced | Left ventricular function (C57BL/6 adult mice [1]; 1.5 mg / Kg gavage, three weeks): has improved | left ventricular wall thickness (C57BL/6 adult mice [1]; 1.5 mg / Kg gavage, three weeks, compared to the group treated with losartan, p≤ 0.001, Figure 2 B): has thickened | myocardial fibrosis area (left ventricle : LV) (C57BL/6 adult mice [1]; 1.5 mg / Kg intragastric gavage from 10 days after infarction for three weeks, compared to Losartan (5mg/kg), Figure 2 A): significantly reduced fibrosis | myocardial fibrosis area (LV) (C57BL/6 adult mice [2]; ischemia / reperfusion, 1.5 mg / Kg gavage, three weeks, compared with the non treated group, p≤ 0.001, Figure 3 A): prevented fibrosis | Left ventricular function (C57BL/6 adult mice [2]; ischemia / reperfusion, M-mode echocardiography, compared to non-treated group and pretreatment, p≤ 0.001, Figure 3 B): fully restored left ventricular function | shortening fraction (SF) (C57BL/6 adult mice [2]; post administration, normal SF in healthy mice 60%, post infarct 20%): 60%
